# Read-outs that look alike come from different tables or passages of the source.
# Key:
# [1] = tested on: MDCK; experiment: MDCK BBB Assay; type: in vitro ADME; conditions: for % Permeable: MDCK BBB assay
# [2] = target: hCB1 (Homo sapiens, UniProt P21554); experiment: radioligand displacement binding at CB1 (membranes of CHO-K1 cells over-expressing receptor)
# Description: (§1) All compounds were characterized by H^1 NMR and evaluated using a calcium mobilization assay. […] Further characterization of select compounds was performed using radioligand displacement of [3H]1 and equilibrium dissociation constant (Ki) values were determined.
# [3] = target: hCB2 (Homo sapiens, UniProt P34972); experiment: radioligand displacement binding at CB2 ([3H]CP55940, membranes of CHO-K1 cells over-expressing receptor)
# Description: as §1
# [4] = read-out: Binding affinity (Ki) at hCB1, radioligand displacement, CHO-K1 membranes, average of 3-6 measurements
# [5] = read-out: Binding affinity (Ki) at hCB2, displacement of [3H]CP55940, CHO-K1 membranes, average of 3-6 measurements
# hCB2, sequence (P34972 whole entry): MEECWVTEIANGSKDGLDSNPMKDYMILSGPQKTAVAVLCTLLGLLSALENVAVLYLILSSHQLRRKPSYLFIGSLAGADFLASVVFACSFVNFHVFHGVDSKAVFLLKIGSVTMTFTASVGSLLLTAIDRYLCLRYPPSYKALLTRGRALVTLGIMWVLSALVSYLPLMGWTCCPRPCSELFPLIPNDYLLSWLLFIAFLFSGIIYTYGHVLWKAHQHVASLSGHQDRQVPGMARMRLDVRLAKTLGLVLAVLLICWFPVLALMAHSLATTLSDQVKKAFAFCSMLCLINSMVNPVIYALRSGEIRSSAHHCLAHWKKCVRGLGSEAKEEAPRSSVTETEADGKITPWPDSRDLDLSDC
# hCB1, sequence (P21554 whole entry): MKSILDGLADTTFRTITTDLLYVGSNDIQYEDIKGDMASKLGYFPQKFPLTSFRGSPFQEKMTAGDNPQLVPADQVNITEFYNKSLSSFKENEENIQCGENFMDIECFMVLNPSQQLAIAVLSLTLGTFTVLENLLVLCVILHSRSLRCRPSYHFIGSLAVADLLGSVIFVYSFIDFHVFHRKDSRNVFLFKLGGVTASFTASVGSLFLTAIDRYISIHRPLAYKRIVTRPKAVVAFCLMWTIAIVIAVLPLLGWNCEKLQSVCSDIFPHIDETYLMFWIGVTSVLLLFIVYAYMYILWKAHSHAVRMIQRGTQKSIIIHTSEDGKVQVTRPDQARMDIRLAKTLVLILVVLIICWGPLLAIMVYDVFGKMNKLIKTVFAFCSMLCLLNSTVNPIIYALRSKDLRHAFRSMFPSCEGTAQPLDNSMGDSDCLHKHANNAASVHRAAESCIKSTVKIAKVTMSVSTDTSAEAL
SMILES,melting point [°C],% Permeable [1] [%],"Ki [3, 5] [nM]",other results
"O=S(=O)(NC1CCN(c2ncnc3c2nc(-c2ccccc2Cl)n3-c2ccc(Cl)cc2)CC1)c1ccc(F)c(F)c1 [Compound 7, N-{1-[8-(2-Chlorophenyl)-9-(4-chlorophenyl)-9H-purin-6-yl]piperidin-4-yl}-3,4-difluorobenzene-1-sulfonamide]",183 to 184,0,,MDCK BBB Assay (Basolateral/Apical Peak Area Ratio) Mean ([1]; MDCK cells): 0
"O=C(Nc1ccccc1F)NC1CCN(c2ncnc3c2nc(-c2ccccc2Cl)n3-c2ccc(C(F)(F)F)nc2)CC1 [Compound 20, 3-{1-[8-(2-Chlorophenyl)-9-[6-(trifluoromethyl)pyridin-3-yl]-9H-purin-6-yl]piperidin-4-yl}-1-(2-fluorophenyl)urea]",227 to 228,,,
"O=C(Nc1ccccc1F)NC1CCN(c2ncnc3c2nc(-c2ccccc2Cl)n3-c2ccc(OC(F)F)nc2)CC1 [Compound 21, 3-{1-[8-(2-Chlorophenyl)-9-[6-(difluoromethoxy)pyridin-3-yl]-9H-purin-6-yl]piperidin-4-yl}-1-(2-fluorophenyl)urea]",140 to 142,,,
"O=C(Nc1ccc(F)cc1F)NC1CCN(c2ncnc3c2nc(-c2ccccc2Cl)n3-c2ccc(Cl)cc2)CC1 [Compound 22, 3-{1-[8-(2-Chlorophenyl)-9-(4-chlorophenyl)-9H-purin-6-yl]piperidin-4-yl}-1-(2,4-difluorophenyl)urea]",140 to 142,,,
"O=C(Nc1ccc(C(F)(F)F)nc1)NC1CCN(c2ncnc3c2nc(-c2ccccc2Cl)n3-c2ccc(Cl)cc2)CC1 [Compound 24, 3-{1-[8-(2-Chlorophenyl)-9-(4-chlorophenyl)-9H-purin-6-yl]piperidin-4-yl}-1-[6-(trifluoromethyl)pyridin-3-yl]urea]",140 to 142,,,
"O/N=C(\c1ccc(F)cc1)C1CCN(c2ncnc3c2nc(-c2ccccc2Cl)n3-c2ccc(Cl)cc2)CC1 [Compound 28, (Z)-{1-[8-(2-chlorophenyl)-9-(4-chlorophenyl)-9H-purin-6-yl]piperidin-4-yl}(4-fluorophenyl)methanone oxime]",,,,Ki [2]: 3 nM; Ki [3]: 11000 nM
"O=C(Nc1ccc(F)cc1)N1CCN(c2ncnc3c2nc(-c2ccccc2Cl)n3-c2ccc(Cl)cc2)CC1 [Compound 43, 4-[8-(2-Chlorophenyl)-9-(4-chlorophenyl)-9H-purin-6-yl]-N-(4-fluorophenyl)piperazine-1-carboxamide]",234 to 235,,2000,"Ki [2, 4]: 19 nM"
Cc1cc(NC(=O)N2CCN(c3ncnc4c3nc(-c3ccccc3Cl)n4-c3ccc(Cl)cc3)CC2)no1 [Compound 50],230 to 231,,,
"O=C(Nc1ccccc1F)N1CCN(c2ncnc3c2nc(-c2ccccc2Cl)n3-c2ccc(Cl)cc2)CC1 [Compound 56, 4-[8-(2-Chlorophenyl)-9-(4-chlorophenyl)-9H-purin-6-yl]-N-(2-fluorophenyl)piperazine-1-carboxamide]",214 to 215,,1300,"Ki [2, 4]: 6 nM"
"O=C(Nc1ccc(F)cc1F)N1CCN(c2ncnc3c2nc(-c2ccccc2Cl)n3-c2ccc(Cl)cc2)CC1 [Compound 57, 4-[8-(2-Chlorophenyl)-9-(4-chlorophenyl)-9H-purin-6-yl]-N-(2,4-difluorophenyl)piperazine-1-carboxamide]",220 to 221,,3200,Ki [2]: 9 nM
"CC(C)(C)OC(=O)N1CCN(c2ncnc3c2nc(-c2ccccc2Cl)n3-c2ccc(Cl)cc2)CC1 [Compound 58, tert-Butyl 4-[8-(2-Chlorophenyl)-9-(4-chlorophenyl)-9H-purin-6-yl]piperazine-1-carboxylate]",,3,,Ki [3]: 3350 nM
"O=C(C1COc2ccccc2O1)N1CCN(c2ncnc3c2nc(-c2ccccc2Cl)n3-c2ccc(Cl)cc2)CC1 (centres unmarked) [Compound 61, 8-(2-Chlorophenyl)-9-(4-chlorophenyl)-6-[4-(2,3-dihydro-1,4-benzodioxin-2-ylcarbonyl)piperazin-1-yl]-9H-purine]",,0,606,Ki [2]: 5.3 nM
"N#Cc1ccccc1CN1CCN(c2ncnc3c2nc(-c2ccccc2Cl)n3-c2ccc(Cl)cc2)CC1 [Compound 75, 6-[4-(2-Cyanobenzyl)piperazin-1-yl]-8-(2-chlorophenyl)-9-(4-chlorophenyl)-9H-purine]",127 to 128,,,
"CCS(=O)(=O)N1CCN(c2ncnc3c2nc(-c2ccccc2Cl)n3-c2ccc(Cl)cc2)CC1 [Compound 78, 8-(2-Chlorophenyl)-9-(4-chlorophenyl)-6-[4-(ethylsulfonyl)piperazin-1-yl]-9H-purine]",,18,980,Ki [2]: 2.7 nM
"CCCS(=O)(=O)N1CCN(c2ncnc3c2nc(-c2ccccc2Cl)n3-c2ccc(Cl)cc2)CC1 [Compound 79, 8-(2-Chlorophenyl)-9-(4-chlorophenyl)-6-[4-(propylsulfonyl)piperazin-1-yl]-9H-purine]",,6,848,"Ki [2, 4]: 1.2 nM"
"O=S(=O)(C1CC1)N1CCN(c2ncnc3c2nc(-c2ccccc2Cl)n3-c2ccc(Cl)cc2)CC1 [Compound 84, 8-(2-Chlorophenyl)-9-(4-chlorophenyl)-6-[4-(cyclopropylsulfonyl)piperazin-1-yl]-9H-purine]",,4,2300,Ki [2]: 5.3 nM
"CS(=O)(=O)N1CCN(c2ncnc3c2nc(-c2ccccc2Cl)n3-c2ccc(Cl)cc2)CC1 [Compound 86, 8-(2-Chlorophenyl)-9-(4-chlorophenyl)-6-[4-(methylsulfonyl)piperazin-1-yl]-9H-purine]",,14,,Ki [2]: 24.4 nM; Ki [3]: 1650 nM
"O=C(N1CCN(c2ncnc3c2nc(-c2ccccc2Cl)n3-c2ccc(Cl)cc2)CC1)C(F)(F)F [Compound 87, 8-(2-Chlorophenyl)-9-(4-chlorophenyl)-6-[4-(trifluoroacetyl)piperazin-1-yl]-9H-purine]",,~100,,"Ki [2, 4]: 1 nM; Ki [3]: 134 nM"
"Cc1ccccc1CN1CCN(c2ncnc3c2nc(-c2ccccc2Cl)n3-c2ccc(Cl)cc2)CC1 [Compound 100, 8-(2-Chlorophenyl)-9-(4-chlorophenyl)-6-[4-(2-methylbenzyl)piperazin-1-yl]-9H-purine]",,,,Ki [3]: 1250 nM
"CCCCC(=O)N1CCN(c2ncnc3c2nc(-c2ccccc2Cl)n3-c2ccc(Cl)cc2)CC1 [Compound 103, 8-(2-Chlorophenyl)-9-(4-chlorophenyl)-6-(4-pentanoylpiperazin-1-yl)-9H-purine]",,0,403,Ki [2]: 5.5 nM
"FC(F)(F)c1ccccc1CN1CCN(c2ncnc3c2nc(-c2ccccc2Cl)n3-c2ccc(Cl)cc2)CC1 [Compound 111, 8-(2-Chlorophenyl)-9-(4-chlorophenyl)-6-{4-[2-(trifluoromethyl)benzyl]piperazin-1-yl}-9H-purine]",119 to 121,,,
"FC(F)(F)Oc1ccccc1CN1CCN(c2ncnc3c2nc(-c2ccccc2Cl)n3-c2ccc(Cl)cc2)CC1 [Compound 112, 8-(2-Chlorophenyl)-9-(4-chlorophenyl)-6-{4-[2-(trifluoromethoxy)benzyl]piperazin-1-yl}-9H-purine]",110 to 111,,,Ki [3]: 76000 nM
"Cc1c(CN2CCN(c3ncnc4c3nc(-c3ccccc3Cl)n4-c3ccc(Cl)cc3)CC2)cnn1C [Compound 114, 8-(2-Chlorophenyl)-9-(4-chlorophenyl)-6-{4-[(1,5-dimethyl-1H-pyrazol-4-yl)methyl]piperazin-1-yl}-9H-purine]",138 to 139,,,
"N=C(Nc1ccc(F)cc1)N1CCN(c2ncnc3c2nc(-c2ccccc2Cl)n3-c2ccc(Cl)cc2)CC1 [Compound 116, 4-[8-(2-chlorophenyl)-9-(4-chlorophenyl)-9H-purin-6-yl]-N-(4-fluorophenyl)piperazine-1-carboximidamide]",,,,Ki [3]: > 6000 nM
"O=C(NC1(C(F)(F)F)CCCC1)N1CCN(c2ncnc3c2nc(-c2ccccc2Cl)n3-c2ccc(Cl)cc2)CC1 [Compound 118, 4-[8-(2-Chlorophenyl)-9-(4-chlorophenyl)-9H-purin-6-yl]-N-[1-(trifluoromethyl)cyclopentyl]piperazine-1-carboxamide]",202 to 204,,1300,"Ki [2, 4]: 24 nM"
"O=C(NC1CCCCC1)N1CCN(c2ncnc3c2nc(-c2ccccc2Cl)n3-c2ccc(Cl)cc2)CC1 [Compound 119, 4-[8-(2-chlorophenyl)-9-(4-chlorophenyl)-9H-purin-6-yl]-N-cyclohexylpiperazine-1-carboxamide]",228 to 229,,620,"Ki [2, 4]: 1.4 nM"
"O=C(NC1CCN(c2ncnc3c2nc(-c2ccccc2Cl)n3-c2ccc(Cl)cc2)CC1)NC1CCC(F)(F)CC1 [Compound 124, 3-{1-[8-(2-Chlorophenyl)-9-(4-chlorophenyl)-9H-purin-6-yl]piperidin-4-yl}-1-(4,4-difluorocyclohexyl)urea]",228 to 229,,,
"CC1(NC(=O)NC2CCN(c3ncnc4c3nc(-c3ccccc3Cl)n4-c3ccc(Cl)cc3)CC2)CCC(F)(F)CC1 [Compound 126, 3-{1-[8-(2-Chlorophenyl)-9-(4-chlorophenyl)-9H-purin-6-yl]piperidin-4-yl}-1-(4,4-difluoro-1-methylcyclohexyl)urea]",160 to 162,,,
"O=C(NCC1CCC(F)(F)CC1)NC1CCN(c2ncnc3c2nc(-c2ccccc2Cl)n3-c2ccc(Cl)cc2)CC1 [Compound 127, 3-{1-[8-(2-Chlorophenyl)-9-(4-chlorophenyl)-9H-purin-6-yl]piperidin-4-yl}-1-[(4,4-difluorocyclohexyl)methyl]urea]",135 to 137,,,
"O=C(NCc1ccc(F)cc1)NC1CCN(c2ncnc3c2nc(-c2ccccc2Cl)n3-c2ccc(Cl)cc2)CC1 [Compound 128, 3-{1-[8-(2-Chlorophenyl)-9-(4-chlorophenyl)-9H-purin-6-yl]piperidin-4-yl}-1-[(4-fluorophenyl)methyl]urea]",184 to 185,,,

# — patent publication US10696677B2 (Research Triangle Institute, priority 2016, dated 2020)
